Reference: patent publication US20230002360A1, “Heterocycloalkyl compounds as CCR2 / CCR5 antagonists” (SHENZHEN LINGFANG BIOTECH CO.,LTD, priority 2019, published 2023)

Key:
[1] = target: T1, CYP2C19 (Homo sapiens, UniProt P33261); assay: Inhibition of human liver microsomal CYP2C19 ((S)-mephenytoin probe); assay type: in vitro ADME; details: human liver microsomes, read-out: Half inhibitory concentration IC50, CYP2C19
T1 construct: from tissue; host or cells: human liver microsomes
Description: (§1) Experimental Example 2. Inhibition of human liver microsomal cytochrome P450 isoenzymes (CYP1A2, CYP2C9, CYP2C19, CYP2D6 and CYP3A4) activity
(§2) A total of 5 specific probe substrates of 5 CYP isozymes, which are phenacetin (PHenacetin, CYP1A2), diclofenac (Diclofenac, CYP2C9), (S)-mephenytoin ((S)-MepHenytoin, CYP2C19), dextromethorpHan (CYP2D6), and midazolam (Midazolam, CYP3A4), were incubated with human liver microsomes respectively. Then, reduced nicotinamide adenine dinucleotide phosphate (NADPH) was added to initiate reaction. After the reaction, the sample is processed and quantitatively detected for the concentrations of the five metabolites produced from the specific substrate, acetaminophen (AcetaminopHen), 4′-hydroxydiclofenac (4′-Hydroxydiclofenac), 4′-Hydroxymephenytoin (4′-HydroxymepHenytoin), Dextrorphan (DextrorpHan), and 1′-Hydroxymidazolam (1′-Hydroxymidazolam) by liquid chromatography-quadrupole mass spectrometry (LC-MS/MS) method to calculate the corresponding half inhibitory concentration (IC50).

[2] = target: T2, CYP1A2 (Homo sapiens, UniProt P05177); assay: Inhibition of human liver microsomal CYP1A2 (phenacetin probe); assay type: in vitro ADME; details: human liver microsomes, read-out: Half inhibitory concentration IC50, CYP1A2
T2 construct: from tissue; host or cells: human liver microsomes
T2 sequence (P05177 1-516): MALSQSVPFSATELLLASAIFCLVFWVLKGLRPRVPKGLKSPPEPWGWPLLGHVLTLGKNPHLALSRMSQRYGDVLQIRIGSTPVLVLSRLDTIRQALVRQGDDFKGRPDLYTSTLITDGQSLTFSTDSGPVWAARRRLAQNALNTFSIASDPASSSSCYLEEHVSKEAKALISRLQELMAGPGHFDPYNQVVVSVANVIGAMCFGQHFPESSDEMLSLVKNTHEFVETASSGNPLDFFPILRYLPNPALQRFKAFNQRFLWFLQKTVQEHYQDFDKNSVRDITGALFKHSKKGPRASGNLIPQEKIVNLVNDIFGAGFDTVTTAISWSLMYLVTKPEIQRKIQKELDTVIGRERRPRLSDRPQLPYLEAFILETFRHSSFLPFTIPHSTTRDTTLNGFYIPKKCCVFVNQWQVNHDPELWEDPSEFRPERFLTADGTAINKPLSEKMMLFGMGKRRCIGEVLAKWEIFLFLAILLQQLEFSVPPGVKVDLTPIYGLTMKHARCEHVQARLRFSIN
Description: as §1, §2

[3] = target: T3, CYP3A4 (Homo sapiens, UniProt P08684); assay: Inhibition of human liver microsomal CYP3A4 (midazolam probe); assay type: in vitro ADME; details: for inhibitory effect on CYP3A4 (in words): conclusion from Table 2; for IC50: human liver microsomes, midazolam, read-out: Half inhibitory concentration IC50, CYP3A4-M
T3 construct: from tissue; host or cells: human liver microsomes
Description: Inhibition of human liver microsomal cytochrome P450 isoenzymes (CYP1A2, CYP2C9, CYP2C19, CYP2D6 and CYP3A4) activity
A total of 5 specific probe substrates of 5 CYP isozymes, which are phenacetin (PHenacetin, CYP1A2), diclofenac (Diclofenac, CYP2C9), (S)-mephenytoin ((S)-MepHenytoin, CYP2C19), dextromethorpHan (CYP2D6), and midazolam (Midazolam, CYP3A4), were incubated with human liver microsomes respectively. Then, reduced nicotinamide adenine dinucleotide phosphate (NADPH) was added to initiate reaction.

[4] = target: T4, CYP2C9 (Homo sapiens, UniProt P11712); assay: Inhibition of human liver microsomal CYP2C9 (diclofenac probe); assay type: in vitro ADME; details: human liver microsomes, read-out: Half inhibitory concentration IC50, CYP2C9
T4 construct: from tissue; host or cells: human liver microsomes
Description: as §1, §2

[5] = target: T5, CYP2D6 (Homo sapiens, UniProt P10635); assay: Inhibition of human liver microsomal CYP2D6 (dextromethorphan probe); assay type: in vitro ADME; details: human liver microsomes, read-out: Half inhibitory concentration IC50, CYP2D6
T5 construct: from tissue; host or cells: human liver microsomes
Description: as §1, §2

[6] = target: T6, CCR2 (Homo sapiens, UniProt P41597); assay: FLIPR calcium assay, CCR2 cell line; assay type: cell-based; details: HEK293 host cell, MCP-1 agonist, intracellular calcium signal; read-out: IC50 (nM) test results for FLIPR detection, CCR2
T6 construct: expressed in transfected cells; host or cells: HEK293 (clone C7, passage P6)
Description: (§3) The changes in intracellular calcium signal were detected by FLIPR Calcium assay, and the compound's IC50 value was used as an indicator to evaluate inhibitory effect of the compound on CCR2 and CCR5 receptors.
(§4) 1, Cell line: Cells were seeded and incubated overnight in an incubator at 37° C. and 5% CO2.
(§5) CCR2/CCR5 density: 1 M (20K/Well)
(§6) 2, Reagents: Fluo-4 Direct, (Invitrogen, Cat #f10471)
(§7) The compound was dissolved in DMSO to prepare a 10 mM solution, and the compound solution was placed in a nitrogen gas box.
(§8) MCP-1 was serially diluted with FLIPR assay buffer starting from 0.5 μM at a dilution ratio of 1:2 and a total of 10 gradients were diluted (final 100 nM). RANTES is serially diluted with FLIPR assay buffer starting from 0.5 μM at a dilution ratio of 1:3 and a total of 10 gradients were diluted (final 100 nM). According to the compound plate-map, 20 μL of the serially diluted compound buffers were added to each well of the DRC plate respectively.
(§9) The standard compound was diluted with DMSO 1:3 starting from 1 mM at a dilution ratio of 1:3 and a total of 11 gradients were diluted. The test compound was diluted with DMSO 1:3 starting from 2 mM at a dilution ratio of 1:3 and a total of 11 gradients were diluted.
(§10) c) taking the cell plate from the incubator, and gently distributing 20 μL of 2× Fluo-4 Direct non-washing loading buffer to each well of the 384-well cell culture plate using a pipette, wherein each of wells in the cell plate has a final volume of 40 μL.
(§11) d) Incubating at 37° C. and 5% CO2 for 50 minutes, and at room temperature for 10 minutes.
(§12) e) removing the cell plate from the incubator and placing in FLIPR, and putting the composite plate and the tip box into FLIPR.
(§13) 5) Calculating from Read 90 to the maximum allowable “maximum-minimum”, and calculating the EC80 value of each of cell lines by using FLIPR
(§14) 6) Preparing the reference agonist compound at a concentration of 5×EC80
(§15) 2) Transferring […] of the reference agonist compound at a concentration of 5×EC80 from the composite plate to the cell plate.
(§16) 3) Reading the fluorescence signal.
(§17) 4) Calculating from Read 90 to the maximum allowable “maximum-minimum”.
(§18) h) Analyzing the data and calculating the IC50 value of the compound by using Prism.

[7] = target: T7, CCR5 (Homo sapiens, UniProt P51681); assay: FLIPR calcium assay, CCR5 cell line; assay type: cell-based; details: HEK293 host cell, RANTES agonist, intracellular calcium signal; read-out: IC50 (nM) test results for FLIPR detection, CCR5
T7 construct: expressed in transfected cells; host or cells: HEK293 (clone C13, passage P4)
Description: as §3, §4, §5, §6, §7, §8, §9, §10, §11, §12, §13, §14, §15, §16, §17, §18

[8] = test system: human liver microsomal cytochrome P450 isoenzymes; assay: Inhibition of human liver microsomal cytochrome P450 isoenzymes, overall conclusion; assay type: in vitro ADME; details: conclusion from Table 2
Description: as §1, §2

T6 sequence (P41597 whole entry, species assumed): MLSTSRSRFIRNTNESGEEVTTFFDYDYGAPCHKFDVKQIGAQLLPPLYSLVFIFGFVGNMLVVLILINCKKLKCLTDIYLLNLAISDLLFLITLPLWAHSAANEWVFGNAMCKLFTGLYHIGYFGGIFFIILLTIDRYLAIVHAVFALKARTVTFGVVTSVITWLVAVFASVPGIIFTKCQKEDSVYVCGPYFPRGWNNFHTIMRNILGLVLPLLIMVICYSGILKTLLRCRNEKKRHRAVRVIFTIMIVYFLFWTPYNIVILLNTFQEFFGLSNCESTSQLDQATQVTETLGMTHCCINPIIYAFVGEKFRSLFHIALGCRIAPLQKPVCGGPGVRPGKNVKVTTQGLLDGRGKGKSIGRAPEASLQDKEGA
T1 sequence (P33261 whole entry): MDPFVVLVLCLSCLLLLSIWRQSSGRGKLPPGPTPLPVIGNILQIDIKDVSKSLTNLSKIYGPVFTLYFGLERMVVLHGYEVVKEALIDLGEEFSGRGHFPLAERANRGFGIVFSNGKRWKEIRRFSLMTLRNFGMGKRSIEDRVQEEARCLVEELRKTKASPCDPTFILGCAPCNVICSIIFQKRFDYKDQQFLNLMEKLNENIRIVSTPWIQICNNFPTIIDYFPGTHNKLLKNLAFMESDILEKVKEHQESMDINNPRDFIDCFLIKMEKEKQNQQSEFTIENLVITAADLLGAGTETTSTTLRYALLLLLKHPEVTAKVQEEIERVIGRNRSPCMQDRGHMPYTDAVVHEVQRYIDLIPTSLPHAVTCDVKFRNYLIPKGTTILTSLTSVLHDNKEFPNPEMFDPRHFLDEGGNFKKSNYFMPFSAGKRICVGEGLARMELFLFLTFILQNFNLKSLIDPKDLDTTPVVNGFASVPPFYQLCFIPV
T5 sequence (P10635 whole entry): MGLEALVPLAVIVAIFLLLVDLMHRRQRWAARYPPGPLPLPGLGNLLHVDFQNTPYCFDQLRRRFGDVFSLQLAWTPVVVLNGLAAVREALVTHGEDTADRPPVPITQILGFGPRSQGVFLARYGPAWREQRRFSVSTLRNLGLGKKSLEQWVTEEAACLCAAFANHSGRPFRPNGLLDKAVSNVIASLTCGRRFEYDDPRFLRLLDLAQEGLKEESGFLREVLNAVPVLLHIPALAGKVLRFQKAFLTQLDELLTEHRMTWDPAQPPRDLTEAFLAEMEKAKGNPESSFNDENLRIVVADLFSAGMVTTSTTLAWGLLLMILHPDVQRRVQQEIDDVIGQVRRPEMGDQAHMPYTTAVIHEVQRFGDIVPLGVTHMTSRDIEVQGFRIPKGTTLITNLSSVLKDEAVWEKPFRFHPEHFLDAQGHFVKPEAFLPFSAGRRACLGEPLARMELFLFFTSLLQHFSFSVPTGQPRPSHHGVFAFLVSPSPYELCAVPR
T4 sequence (P11712 whole entry): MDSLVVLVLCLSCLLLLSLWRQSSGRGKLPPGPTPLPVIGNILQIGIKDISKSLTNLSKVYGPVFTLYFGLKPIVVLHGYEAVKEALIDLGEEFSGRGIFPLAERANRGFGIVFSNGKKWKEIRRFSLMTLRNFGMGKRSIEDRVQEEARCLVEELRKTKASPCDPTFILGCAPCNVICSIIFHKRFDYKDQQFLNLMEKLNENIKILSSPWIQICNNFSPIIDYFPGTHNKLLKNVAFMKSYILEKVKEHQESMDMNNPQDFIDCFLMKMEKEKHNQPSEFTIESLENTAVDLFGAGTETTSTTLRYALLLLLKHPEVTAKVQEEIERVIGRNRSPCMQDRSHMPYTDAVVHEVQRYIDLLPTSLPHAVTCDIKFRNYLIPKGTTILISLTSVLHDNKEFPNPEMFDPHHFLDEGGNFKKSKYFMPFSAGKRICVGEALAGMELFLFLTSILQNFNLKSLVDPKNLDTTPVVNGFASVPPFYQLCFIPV
T7 sequence (P51681 whole entry, species assumed): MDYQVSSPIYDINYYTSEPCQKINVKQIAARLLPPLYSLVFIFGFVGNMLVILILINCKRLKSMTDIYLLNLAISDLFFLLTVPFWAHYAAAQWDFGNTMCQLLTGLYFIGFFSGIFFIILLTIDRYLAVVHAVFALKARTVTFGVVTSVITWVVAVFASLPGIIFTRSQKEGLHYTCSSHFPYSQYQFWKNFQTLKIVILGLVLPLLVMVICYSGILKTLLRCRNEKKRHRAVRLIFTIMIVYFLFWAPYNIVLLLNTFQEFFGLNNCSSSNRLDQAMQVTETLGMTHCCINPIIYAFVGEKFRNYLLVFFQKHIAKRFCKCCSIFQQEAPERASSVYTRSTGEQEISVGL
T3 sequence (P08684 whole entry): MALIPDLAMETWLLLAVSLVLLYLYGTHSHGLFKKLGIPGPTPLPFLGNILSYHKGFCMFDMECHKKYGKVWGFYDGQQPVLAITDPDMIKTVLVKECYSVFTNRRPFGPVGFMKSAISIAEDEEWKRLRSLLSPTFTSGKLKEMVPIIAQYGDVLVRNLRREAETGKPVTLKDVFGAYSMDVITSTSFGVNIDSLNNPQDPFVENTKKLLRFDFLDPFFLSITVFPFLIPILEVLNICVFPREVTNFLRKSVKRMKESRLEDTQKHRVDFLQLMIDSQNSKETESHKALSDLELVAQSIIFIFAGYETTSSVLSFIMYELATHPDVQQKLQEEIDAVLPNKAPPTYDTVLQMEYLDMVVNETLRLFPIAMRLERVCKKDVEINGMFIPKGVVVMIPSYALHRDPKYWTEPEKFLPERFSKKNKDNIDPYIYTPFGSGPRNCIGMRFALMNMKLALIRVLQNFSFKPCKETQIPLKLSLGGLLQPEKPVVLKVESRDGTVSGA

| Compound | IC50 [6] [nM] | IC50 [7] [nM] | also measured |
| --- | --- | --- | --- |
| CCCCOCCOc1ccc(-c2ccc3c(c2)/C=C(/C(=O)Nc2ccc([S@@+]([O-])Cc4cncn4CCC)cc2)CCCN3CC2CC2)cc1 [Reference A, reference compound] |  |  | IC50 [1]: > 50000 nM; IC50 [2]: > 50000 nM; inhibitory effect on CYP3A4 (in words) [3]: strong inhibitory effect; IC50 [3]: 786 nM; IC50 [4]: > 50000 nM; IC50 [5]: > 50000 nM |
| CCCCOCCOc1ccc(-c2ccc3c(c2)/C=C(/C(=O)Nc2ccc([S@+]([O-])Cc4c(C)ncn4CC)cc2)CCCN3CC2CCN(C)CC2)cc1 [WX009] | 4.38 | 6.78 |  |
| CCCCOCCOc1ccc(-c2ccc3c(c2)/C=C(/C(=O)Nc2ccc([S@+]([O-])Cc4c(C)ncn4CC)cc2)CCCN3CC2COCCO2)cc1 (some centres unmarked) [WX025] | 0.69 | 1.38 |  |
| CCCCOCCOc1ccc(-c2ccc3c(c2)/C=C(/C(=O)Nc2ccc([S@+]([O-])Cc4c(C)ncn4CC)cc2)CCCN3CC2CCCO2)cc1 (some centres unmarked) [WX027] | 0.41 | 1.44 |  |
| CCCCOCCOc1ccc(-c2ccc3c(c2)/C=C(/C(=O)Nc2ccc([S@@+]([O-])Cc4c(C)ncn4CC)cc2)CCCN3CC2CCOCC2)cc1 [WX017] | 2.47 |  |  |
| CCCCOCCOc1ccc(-c2ccc3c(c2)/C=C(/C(=O)Nc2ccc([S@@+]([O-])Cc4cncn4CCC)cc2)CCCN3CC(C)C)cc1 [(CVC), Cenicriviroc, reference compound] |  |  | IC50 [1]: > 50000 nM; IC50 [2]: > 50000 nM; inhibitory effect on CYP3A4 (in words) [3]: strong inhibitory effect; IC50 [3]: 750 nM; IC50 [4]: > 50000 nM; IC50 [5]: > 50000 nM |
| CCCCOCCOc1ccc(-c2ccc3c(c2)C=C(C(=O)Nc2ccc([S@+]([O-])Cc4c(C)ncn4CC)cc2)CCN3CC2CCN(C)CC2)cc1 [WX018] | 17.9 | 3.35 |  |
| CCCCOCCOc1ccc(-c2ccc3c(c2)/C=C(/C(=O)Nc2ccc([S@+]([O-])Cc4c(C)ncn4CC)cc2)CCCN3CC2COCCO2)cc1 (some centres unmarked) [WX026] | 0.69 | 1.37 |  |
| CCCCOCCOc1ccc(-c2ccc3c(c2)/C=C(/C(=O)Nc2ccc([S@+]([O-])Cc4c(C)ncn4CC)cc2)CCCN3C[C@H]2CCCO2)cc1 [WX028] | 1.19 | 3.15 |  |
| CCCCOCCOc1ccc(-c2ccc3c(c2)/C=C(/C(=O)Nc2ccc([S@+]([O-])Cc4c(C)ncn4CC)cc2)CCCN3CC2CCCCO2)cc1 (some centres unmarked) [WX008] | 3.4 | 6.04 |  |

The next lines start with results.

| IC50 [6] [nM] | IC50 [7] [nM] | Compound | also measured |
| --- | --- | --- | --- |
| 9.2 | 4.2 | CCCCOCCOc1ccc(-c2ccc3c(c2)/C=C(/C(=O)Nc2ccc([S@+]([O-])Cc4c(C)ncn4CC)cc2)CCCCN3CC2COC2)cc1 [WX005] |  |
| 3.11 | 5.45 | CCCCOCCOc1ccc(-c2ccc3c(c2)/C=C(/C(=O)Nc2ccc([S@+]([O-])Cc4c(C)ncn4CC)cc2)CCCN3CC2CCOC2)cc1 (some centres unmarked) [WX013] |  |
| 3 |  | CCCCOCCOc1ccc(-c2ccc3c(c2)/C=C(/C(=O)Nc2ccc([S@@+]([O-])Cc4c(C)ncn4CC)cc2)CCCN3CC2CCOCC2)cc1 [WX002] | IC50 [1]: > 50000 nM; IC50 [2]: > 50000 nM; IC50 [3]: 13300 nM; IC50 [4]: 10900 nM; risk of inhibiting the activity of human liver microsomal cytochrome P450 isoenzymes (in words) [8]: no risk of inhibiting the activity; IC50 [5]: > 50000 nM |
| 6.76 | 6.18 | CCCCOCCOc1ccc(-c2ccc3c(c2)/C=C(/C(=O)Nc2ccc([S@+]([O-])Cc4c(C)ncn4CC)cc2)CCCCN3CC2CCCOC2)cc1 (some centres unmarked) [WX007] |  |
| 37 | 8.27 | CCCCOCCOc1ccc(-c2ccc3c(c2)C=C(C(=O)Nc2ccc([S@+]([O-])Cc4c(C)ncn4CC)cc2)CCN3CC2CCCOC2)cc1 (some centres unmarked) [WX003] |  |
| 3.04 | 6.3 | CCCCOCCOc1ccc(-c2ccc3c(c2)/C=C(/C(=O)Nc2ccc([S@+]([O-])Cc4c(C)ncn4CC)cc2)CCCN3CC2COC2)cc1 [WX004] |  |
| 1.33 | 4.25 | CCCCOCCOc1ccc(-c2ccc3c(c2)/C=C(/C(=O)Nc2ccc([S@+]([O-])Cc4c(C)ncn4CC)cc2)CCCN3CC2CCOCC2)cc1 [WX001] | IC50 [1]: 1420 nM; IC50 [2]: > 50000 nM; inhibitory effect on CYP3A4 (in words) [3]: no inhibitory effect; IC50 [3]: > 50000 nM; IC50 [4]: > 50000 nM; IC50 [5]: > 50000 nM |
| 3.78 | 6.28 | CCCCOCCOc1ccc(-c2ccc3c(c2)/C=C(/C(=O)Nc2ccc([S@+]([O-])Cc4c(C)ncn4CC)cc2)CCCN3CC2CCOC2)cc1 (some centres unmarked) [WX014] |  |
| 7.51 | 8.44 | CCCCOCCOc1ccc(-c2ccc3c(c2)/C=C(/C(=O)Nc2ccc([S@+]([O-])Cc4c(C)ncn4CC)cc2)CCCCN3CC2CCCOC2)cc1 (some centres unmarked) [WX006] |  |
